We go through nine molecules from patent publication US3981997A, “Analgesic compositions comprising 1H- or respectively 2H-indazolone-3 (β-morpholino-alkoxy) compounds” (Temmler Werke-Vereinigte Chemische Fabriken, priority 1970, dated 1976).

Data set [1] relates to mouse. Put plainly: animal or person. The note with it: for ED50: Mus musculus; for Hot plate: relative therapeutic index (Th.I.) / Writhing Test: relative therapeutic index (Th.I.) / Writhing Test: mean effective dosage (ED50) / Hot plate: mean effective dosage (ED50): mouse; for Writhing Test: mean effective dosage (ED50) / Hot plate: mean effective dosage (ED50): relative to effective substance; for Writhing Test: mean effective dosage (ED50): 30 min; for Hot plate: mean effective dosage (ED50): 60 min. The protocol: The mice were kept without food during a period of 18 hours prior to the commencement of the tests. The test substances were administered orally in a methyl-cellulose-mucic (slime) by means of a probe. The observation period for the toxicity tests was 7 days. […] The pre-medication periods were 60 minutes in the first test arrangements. […] The percentage of the non-reacting animals was used to compute the ED50. […] Since the reaction times of the control group animals were log-normally distributed an analgetic effect was assumed in the treated animals if the logarithm of the reaction time of an animal was above the mean value range plus twice the standard deviation of the control group animals.

Data set [2] has as its system rat. Put plainly: animal or person. It is filed as in vivo. The protocol: According to Table II and with reference to the method described by A. HERZ (Naunyn-Schmiedeberg's Arch. Pharmakol., 242, 414, 1962) with rats by electrical stimulation of the root of the tail by means of continuously increasing the current a threshold of pain was determined which threshold was characterized in that the animals commenced to squeak in synchronism with the stimulation. When maintaining the selected test conditions these threshold values indicated as percent variations against the initial values prior to the treatment remained practically constant over a period of several hours in a test with control animals. Since these values are furthermore also normally distributed it is possible to quantitatively determine analgetic effects by determining the number of animals whose threshold values exceed during a test run the range defined by the mean value plus twice the standard deviation.
To determine the mean effective dosage ED50) determinations of the threshold of pain were made in 30 minute intervals with groups of 12 female rats each, each rat having a body weight from 160 to 360 grams, and these determinations were made prior to and after the treatment with at least 3 doses of the test substances which were administered orally in a 2 % methyl-cellulose-mucic by means of a probe. […] In this manner, not only the intensity but also the duration of the effect were taken into consideration when determining the ED50 since the analgesia must be sustained for at least 90 minutes.

A short description of data set [3]: Acute oral toxicity in the mouse (LD50, 7-day observation). It is filed as in vivo. The note with it: in vivo, read-out: Mean lethal dosage (LD50).
A short description of data set [4]: Acute oral toxicity in the rat (LD50). To be noted: in vivo.
Data set [5] relates to mouse. As to the kind of experiment: Acute oral toxicity in the mouse (LD50, 7-day observation). It is filed as in vivo. To be noted: Table I, relative to effective substance, 10080 min.
Data set [6] has as its system rat. It is filed as in vivo.
Data set [7] is described as follows: Overall analgetic effect and compatability [sic]. To be noted: in vivo.
Setting [8] is: po, 0.5 h, read-out: Writhing Test: mean effective dosage (ED50).
The mark [9] stands for this setting: po, 1 h, read-out: Hot plate: mean effective dosage (ED50).
Setting [10] is: Table I, oral, LD10/ED90, relative to aminophenazone = 1,00.
Setting [11] is: Table I, relative to effective substance.
The mark [12] stands for this setting: Table IV, rat, oral, read-out: Mean effective dosage (ED50), electrical stimulation of root of the tail (HERZ).
[13] abbreviates: Table IV, oral, LD10/ED90, relative to aminophenazone = 1.00.
Where [14] appears, read: po, Table II, rat, p.o., relative to effective substance, read-out: Mean effective dosage (ED50), analgetic effect on rats.

Each structure is given as a SMILES string. Where two headings read alike, the source gives them in different places.

For the molecule `COc1ccc2c3c1O[C@H]1[C@@H](O)C=C[C@H]4[C@@H](C2)N(C)CC[C@@]341` [codeine phosphate], the ED50 is 14 mg/kg in the data set on mouse [1] (setting [8]); 115 mg/kg in the data set with mouse [1] (setting [9]); 22 mg/kg in the data set on rat [2] (Rattus norvegicus, po, read-out: Mean effective dosage (ED50), analgetic effect on rats). Further, in the data set with mouse [1] (setting [10]), the “Hot plate: relative therapeutic index (Th.I.)” value is given as 1,49. Besides, the “Writhing Test: relative therapeutic index (Th.I.)” value in the data set with mouse [1] (setting [10]) was 1,92. The “Relative effectivity, relative to aminophenazone = 1.00” value (“Relative effectivity” for short) with rat [2] (Table II, rat, p.o.) is reported as 10.50. Moreover, the LD50 at 168 h in data set [3] (setting [11]) was 265 mg/kg.

For `CC(=O)Oc1ccccc1C(=O)O` [acetylsalicylate], in data set [4], the LD50 was found to be 1400 mg/kg. Also, the ED50 was 107 mg/kg with mouse [1] (setting [8]), 500 mg/kg in the data set with mouse [1] (setting [9]) and 340 mg/kg in the data set with rat [2] (setting [12]). Also, in the data set with mouse [1] (Table I, oral), the “Writhing Test: mean effective dosage (ED50)” value (shortened to “Writhing Test … (ED50)”) is 107 mg/kg body weight. For the same molecule, in the data set on mouse [1] (Table I, oral), the “Hot plate: mean effective dosage (ED50)” value was 500 mg/kg body weight. For the same molecule, the “Hot plate: relative therapeutic index (Th.I.)” value in the data set with mouse [1] (setting [10]) is recorded as 1,67; in the data set on mouse [1] (in vivo, po) it was 1.88. Moreover, the “Writhing Test: relative therapeutic index (Th.I.)” value is 0,80 in the data set on mouse [1] (setting [10]) and 0.91 in the data set on mouse [1] (in vivo, po). Besides, the “Relative effectivity” value in the data set on rat [2] (Table II, rat, p.o.) turned out to be 0.67. Also, the “Mean lethal dosage (LD50)” value in the data set with mouse [5] is 835 mg/kg body weight. In data set [3] (Table III), the LD50 at 168 h is 835 mg/kg. Moreover, the relative therapeutic index in the data set on rat [6] (setting [13]) was 0.28.

Consider `Br.c1ccc2c(OCCN3CCOCC3)n[nH]c2c1` [3-(β-morpholino-ethoxy)-1H-indazole-hydrobromide], for which the ED50 was 46 mg/kg in the data set on mouse [1] (setting [8]), 142 mg/kg with mouse [1] (setting [9]) and 34 mg/kg in the data set with rat [2] (setting [14]). Further, the “Hot plate: relative therapeutic index (Th.I.)” value in the data set with mouse [1] (setting [10]) is given as 3,53. Moreover, the “Writhing Test: relative therapeutic index (Th.I.)” value in the data set on mouse [1] (setting [10]) is on record as 1,30. In addition, the “Relative effectivity” value in the data set on rat [2] (Table II, rat, p.o.) was found to be 6.84. The LD50 at 168 h in data set [3] (setting [11]) was 615 mg/kg. Besides, the “analgetic activity (in words)” value in data set [7] was “Analgetically particularly active”.

Molecule `C1CCc2c(n[nH]c2OCCN2CCOCC2)C1` [3-(β-morpholino-ethoxy)-4,5,6,7-tetrahydro-2H-indazole] gave an LD50 in data set [4] of 1600 mg/kg. Further, the ED50 was found to be 94 mg/kg in the data set with mouse [1] (setting [8]), 540 mg/kg in the data set with mouse [1] (setting [9]) and 143 mg/kg with rat [2] (setting [12]). Also, the “Hot plate: relative therapeutic index (Th.I.)” value with mouse [1] (in vivo, po) is 2.67. Moreover, the “Writhing Test: relative therapeutic index (Th.I.)” value in the data set with mouse [1] (in vivo, po) is given as 2.07. Further, in data set [3] (Table III), the LD50 at 168 h is 1720 mg/kg. In the data set with rat [6] (setting [13]), this molecule displayed a relative therapeutic index of 1.62.

On to `c1ccc2c(OCCN3CCOCC3)n[nH]c2c1` [3-(β-morpholino-ethoxy)-1H-indazole], for which, in data set [7], the “analgetic activity (in words)” value is listed as “Analgetically particularly active”.

Take `CCOc1ccc(NC(C)=O)cc1` [phenacetine]: the ED50 in the data set with mouse [1] (setting [8]) came out at 107 mg/kg; in the data set on mouse [1] (setting [9]), 530 mg/kg; with rat [2] (setting [14]), 123 mg/kg. Further, in the data set with mouse [1] (Table I, oral), the “Writhing Test … (ED50)” value is 107 mg/kg body weight. In addition, the “Hot plate: mean effective dosage (ED50)” value with mouse [1] (Table I, oral) is given as 530 mg/kg body weight. The “Hot plate: relative therapeutic index (Th.I.)” value is listed as 1,71 with mouse [1] (setting [10]) and 1.93 in the data set on mouse [1] (in vivo, po). Further, the “Writhing Test: relative therapeutic index (Th.I.)” value is listed as 0,66 in the data set on mouse [1] (setting [10]) and 0.74 in the data set on mouse [1] (in vivo, po). Moreover, the “Relative effectivity” value with rat [2] (Table II, rat, p.o.) was found to be 1.86. Moreover, the “Mean lethal dosage (LD50)” value with mouse [5] stood at 1250 mg/kg body weight. Moreover, the LD50 at 168 h in data set [3] (Table III) was 1250 mg/kg.

Consider `Cc1c(N(C)C)c(=O)n(-c2ccccc2)n1C` [aminophenazone], for which the LD50 in data set [4] was determined as 1350 mg/kg. Also, the 50% effective dose (ED50) was 50 mg/kg in the data set on mouse [1] (setting [8]), 283 mg/kg in the data set on mouse [1] (setting [9]) and 229 mg/kg in the data set on rat [2] (setting [12]). In addition, in the data set on mouse [1] (Table I, oral), the “Writhing Test … (ED50)” value is 50 mg/kg body weight. Also, the “Hot plate: mean effective dosage (ED50)” value in the data set on mouse [1] (Table I, oral) was found to be 283 mg/kg body weight. Besides, the “Hot plate: relative therapeutic index (Th.I.)” value in the data set on mouse [1] (setting [10]) is listed as 1,00; in the data set on mouse [1] (in vivo, po) it was 1.00. The “Writhing Test: relative therapeutic index (Th.I.)” value is recorded as 1,00 in the data set on mouse [1] (setting [10]) and 1.00 in the data set on mouse [1] (in vivo, po). For the same molecule, the “Relative effectivity” value in the data set on rat [2] (Table II, rat, p.o.) is 1.00. Moreover, the “Mean lethal dosage (LD50)” value with mouse [5] is given as 550 mg/kg body weight. Moreover, the LD50 at 168 h in data set [3] (Table III) turned out to be 550 mg/kg. In the data set on rat [6] (in vivo, po), this molecule registered a relative therapeutic index of 1.00.

Turning to `Br.C1CCc2c(n[nH]c2OCCN2CCOCC2)C1` [3-(β-morpholino-ethoxy)-4,5,6,7-tetrahydro-2H-indazole-hydrobromide], the “analgetic activity (in words)” value in data set [7] is given as “Analgetically particularly active”.

In the case of `c1ccc2c(OCCCN3CCOCC3)n[nH]c2c1` [3-(γ-morpholino-propoxy)-1H-indazole], in data set [7], the “analgetic activity (in words)” value is “Analgetically particularly active”.
